Here are results for 21 molecules from US8017600B2, “Imidazole compounds” (Janssen Pharmaceutica NV, priority 2004, dated 2011).

The target in experiment [1] is T1, human histamine H4 receptor (Homo sapiens, UniProt Q9H3N8).
T1 construct: expressed in transfected cells; host or cells: SK-N-MC cells or COS7 cells, transient transfection; cell membranes
Kind of experiment: Binding assay on recombinant human histamine H4 receptor (3H-histamine displacement). The conditions noted are these: membranes of SK-N-MC or COS7 cells expressing human H4 receptor, Cheng-Prusoff. The procedure:
SK-N-MC cells or COS7 cells were transiently transfected with pH4R and grown in 150 cm^2 tissue culture dishes. Cells were washed with saline solution, scraped with a cell scraper and collected by centrifugation (1000 rpm, 5 min). Cell membranes were prepared by homogenization of the cell pellet in 20 mM Tris-HCl with a polytron tissue homogenizer for 10 sec at high speed. Homogenate was centrifuged at 1000 rpm for 5 min at 4° C. The supernatant was then collected and centrifuged at 20,000×g for 25 min at 4° C. The final pellet was resuspended in 50 mM Tris-HCl. Cell membranes were incubated with ^3H-histamine (5-70 nM) in the presence or absence of excess histamine (10,000 nM). Incubation occurred at room temperature for 45 min. Membranes were harvested by rapid filtration over Whatman GF/C filters and washed 4 times with ice-cold 50 mM Tris HCl. Filters were then dried, mixed with scintillant and counted for radioactivity. SK-N-MC or COS7 cells expressing human histamine H4 receptor were used to measure the affinity of binding of other compounds and their ability to displace ^3H-ligand binding by incubating the above-described reaction in the presence of various concentrations of inhibitor or compound to be tested.

Another experiment has as its system human eosinophils. The experiment can be described thus: Inhibition of histamine-induced eosinophil shape change (gated autofluorescence forward scatter assay). The settings on record: for Fold Change: eosinophil shape change, 10 μM antagonist; for effect on histamine-induced shape change: human eosinophils, result in words.

T1 sequence (Q9H3N8 whole entry): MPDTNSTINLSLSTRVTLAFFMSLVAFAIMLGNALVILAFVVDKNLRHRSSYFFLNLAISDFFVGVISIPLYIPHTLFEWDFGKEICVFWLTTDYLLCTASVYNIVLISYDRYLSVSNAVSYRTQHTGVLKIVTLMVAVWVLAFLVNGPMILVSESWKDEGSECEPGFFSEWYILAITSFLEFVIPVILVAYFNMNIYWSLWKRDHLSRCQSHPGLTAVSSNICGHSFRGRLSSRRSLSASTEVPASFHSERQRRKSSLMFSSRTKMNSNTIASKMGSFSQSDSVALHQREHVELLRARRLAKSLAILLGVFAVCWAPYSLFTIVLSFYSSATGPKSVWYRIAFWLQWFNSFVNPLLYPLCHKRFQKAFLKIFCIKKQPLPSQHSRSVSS

Regarding `Cc1[nH]c(-c2ccc(OCCCN3CCN(C)CC3)nc2)nc1-c1ccc(C(F)(F)F)cc1` [Example 32, 1-Methyl-4-(3-{5-[5-methyl-4-(4-trifluoromethyl-phenyl)-1H-imidazol-2-yl]-pyridin-2-yloxy}-propyl)-piperazine], the Ki in experiment [1] came out at 230 nM.

In the case of `Cc1[nH]c(-c2ccc(OCCCN3CCN(C)CC3)nc2)nc1-c1cccc(C(F)(F)F)c1` [Example 33, 1-Methyl-4-(3-{5-[5-methyl-4-(3-trifluoromethyl-phenyl)-1H-imidazol-2-yl]-pyridin-2-yloxy}-propyl)-piperazine], the Ki in experiment [1] amounted to 63 nM.

Take `Cc1[nH]c(-c2cccc(OCCCCC3CCN(C)CC3)c2)nc1-c1ccc(Cl)cc1` [Example 34, 4-(4-{3-[4-(4-Chloro-phenyl)-5-methyl-1H-imidazol-2-yl]-phenoxy}-butyl)-1-methyl-piperidine]: in experiment [1], the Ki is 33 nM.

As for `CN1CCC(CCCCOc2cccc(-c3nc(-c4ccccc4)c(C(F)(F)F)[nH]3)c2)CC1` [Example 35, 1-Methyl-4-{4-[3-(4-phenyl-5-trifluoromethyl-1H-imidazol-2-yl)-phenoxy]-butyl}-piperidine], in experiment [1], the Ki amounted to 57 nM.

On to `CN1CCC(CCCCOc2cc(-c3nc(-c4ccccc4)c(C(F)(F)F)[nH]3)ccn2)CC1` [Example 36, 2-[4-(1-Methyl-piperidin-4-yl)-butoxy]-4-(4-phenyl-5-trifluoromethyl-1H-imidazol-2-yl)-pyridine], for which, in experiment [1], the Ki is 54 nM.

As to `Cc1[nH]c(-c2ccnc(OCCCCC3CCN(C)CC3)c2)nc1-c1cccc(C(F)(F)F)c1` [Example 37, 2-[4-(1-Methyl-piperidin-4-yl)-butoxy]-4-[5-methyl-4-(3-trifluoromethyl-phenyl)-1H-imidazol-2-yl]-pyridine], the Ki in experiment [1] is 174 nM.

Turning to `Cc1cc(OCCCC2CCN(C)CC2)ccc1-c1nc(C)c(CC(C)C)[nH]1` [Example 38, 4-{3-[4-(5-Isobutyl-4-methyl-1H-imidazol-2-yl)-3-methyl-phenoxy]-propyl}-1-methyl-piperidine], the Ki in experiment [1] was found to be 230 nM.

As for `Cc1[nH]c(-c2ccnc(OCCCCC3CCN(C)CC3)c2)nc1-c1ccc(Cl)cc1` [Example 39, 4-[4-(4-Chloro-phenyl)-5-methyl-1H-imidazol-2-yl]-2-[4-(1-methyl-piperidin-4-yl)-butoxy]-pyridine], the Ki in experiment [1] came to 230 nM.

For the molecule `Cc1nc(-c2ccc(OCCCC3CCN(C)CC3)cc2Cl)[nH]c1CC(C)C` [Example 40, 4-{3-[3-Chloro-4-(5-isobutyl-4-methyl-1H-imidazol-2-yl)-phenoxy]-propyl}-1-methyl-piperidine], the Ki in experiment [1] came out at 93 nM.

For `Cc1[nH]c(-c2cccc(OCCCCC3CCN(C)CC3)c2)nc1-c1ccc(C(F)(F)F)cc1` [Example 41, 1-Methyl-4-(4-{3-[5-methyl-4-(4-trifluoromethyl-phenyl)-1H-imidazol-2-yl]-phenoxy}-butyl)-piperidine], the Ki in experiment [1] was 250 nM.

On to `CN1CCN(CCCOc2ccc(-c3ncc[nH]3)cc2Cl)CC1` [Example 42, 1-{3-[2-Chloro-4-(1H-imidazol-2-yl)-phenoxy]-propyl}-4-methyl-piperazine], for which the Ki in experiment [1] came out at 1960 nM.

In the case of `Cc1nc(-c2ccc(OCCCN3CCN(C)CC3)cc2Cl)[nH]c1C` [Example 43, 1-{3-[3-Chloro-4-(4,5-dimethyl-1H-imidazol-2-yl)-phenoxy]-propyl}-4-methyl-piperazine], in experiment [1], the Ki came out at 2510 nM.

For the molecule `CN1CCN(CCCOc2ccc(-c3nc(-c4ccccc4)c(C(F)(F)F)[nH]3)c(Cl)c2)CC1` [Example 44, 1-{3-[3-Chloro-4-(4-phenyl-5-trifluoromethyl-1H-imidazol-2-yl)-phenoxy]-propyl}-4-methyl-piperazine], the Ki in experiment [1] stood at 20 nM.

Consider `CN1CCCN(CCCOc2ccc(-c3nc(-c4ccccc4)c(C(F)(F)F)[nH]3)cc2Cl)CC1` [Example 45, 1-{3-[2-Chloro-4-(4-phenyl-5-trifluoromethyl-1H-imidazol-2-yl)-phenoxy]-propyl}-4-methyl-[1,4]diazepane], for which the Ki in experiment [1] was 79 nM.

Consider `Cc1cc(OCCCC2CCN(C)CC2)ccc1-c1nc(-c2cccc(C(F)(F)F)c2)c(C)[nH]1` [Example 46, 1-Methyl-4-(3-{3-methyl-4-[5-methyl-4-(3-trifluoromethyl-phenyl)-1H-imidazol-2-yl]-phenoxy}-propyl)-piperidine], for which the Ki in experiment [1] was 16 nM.

In the case of `Cc1cc(OCCCC2CCN(C)CC2)ccc1-c1nc(-c2ccc(Cl)cc2)c(C)[nH]1` [Example 47, 4-(3-{4-[4-(4-Chloro-phenyl)-5-methyl-1H-imidazol-2-yl]-3-methyl-phenoxy}-propyl)-1-methyl-piperidine], the Ki in experiment [1] came to 33 nM.

For the molecule `Cc1cc(OCCOC2CCN(C)CC2)ccc1-c1nc(-c2ccc(Cl)cc2)c(C)[nH]1` [Example 48, 4-(2-{4-[4-(4-Chloro-phenyl)-5-methyl-1H-imidazol-2-yl]-3-methyl-phenoxy}-ethoxy)-1-methyl-piperidine], in experiment [1], the Ki came out at 620 nM.

As for `CN1CCC(CCCCOc2cccc(-c3nc4cccnc4[nH]3)c2)CC1` [Example 69, 2-{3-[4-(1-Methyl-piperidin-4-yl)-butoxy]-phenyl}-3H-imidazo[4,5-b]pyridine], the Ki in experiment [1] was 1410 nM.

Consider `CN1CCN(C(=O)c2cc3cc(Cl)ccc3[nH]2)CC1` [H4 Antagonist, (5-chloro-1H-indol-2-yl)-(4-methyl-piperazin-1-yl)-methanone], for which the IC50 in the experiment on human eosinophils (Homo sapiens, Eosinophil, read-out: IC50 of inhibition of histamine-induced eosinophil shape change) came out at 270 nM.

Consider `CN(C)CCOC(c1ccccc1)c1ccccc1` [diphenhydramine], for which the “Fold Change” value is reported as 1.00 with human eosinophils (histamine 0 μM); 1.03 in the experiment with human eosinophils (histamine 0.01 μM); 1.18 in the experiment on human eosinophils (histamine 0.1 μM); 1.50 with human eosinophils (histamine 1 μM); 1.63 in the experiment with human eosinophils (histamine 10 μM). For the same molecule, the “effect on histamine-induced shape change” value in the experiment on human eosinophils is listed as “did not alter the histamine-induced shape change”.

For the molecule `CNC(=C[N+](=O)[O-])NCCSCc1ccc(CN(C)C)o1` [ranatidine], the “Fold Change” value is 1.00 in the experiment with human eosinophils (histamine 0 μM); 1.04 in the experiment with human eosinophils (histamine 0.01 μM); 1.21 in the experiment on human eosinophils (histamine 0.1 μM); 1.49 in the experiment on human eosinophils (histamine 1 μM); 1.64 in the experiment on human eosinophils (histamine 10 μM). Besides, the “effect on histamine-induced shape change” value in the experiment on human eosinophils is reported as “did not alter the histamine-induced shape change”.
